Assay results: BigSolDB 2.1

A solubility (mole fraction) (in acetone, 302.95 K) of 0.102, a solubility (mole fraction) (in acetone, 308.05 K) of 0.145 and a solubility (mole fraction) (in acetone, 313.25 K) of 0.208 were found for Clc1ccc(SSc2ccc(Cl)cc2)cc1 in this work. The solubility (mole fraction) (in chloroform, 303.15 K) was 0.122, the solubility (mole fraction) (in chloroform, 307.95 K) was 0.174 and the solubility (mole fraction) (in chloroform, 312.55 K) was 0.243. It also gave a solubility (mole fraction) (in ethanol, 304.35 K) of 0.000264, a solubility (mole fraction) (in ethanol, 307.45 K) of 0.000783 and a solubility (mole fraction) (in ethanol, 312.35 K) of 0.00305. The solubility (mole fraction) (in ethanol, 317.35 K) was 0.00786, the solubility (mole fraction) (in ethyl acetate, 303.95 K) was 0.0201 and the solubility (mole fraction) (in ethyl acetate, 307.9 K) was 0.038. For the same compound, the solubility (mole fraction) (in ethyl acetate, 312.35 K) was 0.0667, the solubility (mole fraction) (in ethyl acetate, 319.05 K) was 0.117 and the solubility (mole fraction) (in methanol, 303.15 K) was 0.00014. The solubility (mole fraction) (in methanol, 307.65 K) was 0.00061, the solubility (mole fraction) (in methanol, 314.15 K) was 0.00259 and the solubility (mole fraction) (in methanol, 318.95 K) was 0.00552. For the same compound, the solubility (mole fraction) (in toluene, 303.2 K) was 0.0219, the solubility (mole fraction) (in toluene, 307.85 K) was 0.0446 and the solubility (mole fraction) (in toluene, 314.05 K) was 0.0864. It also gave a solubility (mole fraction) (in toluene, 317.55 K) of 0.114.
